Results on 15 compounds are retold here after patent publication US9447086B2, “6-amino acid heteroaryldihydropyrimidines for the treatment and prophylaxis of hepatitis B virus infection” (priority 2012, dated 2016).

For series [1], the system named is HBV. The series is described as follows: Anti-HBV activity in vitro in HepG2.2.15 cells (extracellular HBV DNA by qPCR). It is filed as cell-based, Hepatitis B virus. Particulars: Hepatitis B virus; HepG2.2.15 cells; in-house data; read-out: EC50. The gist of the method: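 Supernatant HBV DNA was measured by qPCR after viral DNA extraction. Samples came from 5-day cultures of HepG2.2.15 cells, an HBV-genome-transfected HepG2 line, exposed to half-log compound dilutions in medium containing 0.5% DMSO.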
On the technique in general: Quantitative PCR measures a nucleic acid by following its amplification.

A short description of series [2]: Cytotoxicity (CC50) in HepDE19 cells, CCK-8 cell viability. The format is cell-based. Particulars: human, HepDE19 cells; read-out: CC50. The gist of the method: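 HBV-transfected HepG2-derived HepDE19 cells grown in DMEM-F12 with 10% FBS and G418. Viability read five days after treatment by CCK-8, 2 h at 37 °C, absorbance at 450 and 630 nm.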
Series [3] concerns HBV. The experiment in a line: Selectivity index (CC50 value/EC50 value). It is filed as cell-based, Hepatitis B virus. The gist of the method: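 Ratio of CC50 to EC50, measuring antiviral activity against HBV relative to cytotoxicity in vitro; higher values indicate greater separation between viral inhibition and cell death.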
The nature of series [4]: Metabolic stability study in human microsome. It is filed as in vitro ADME. The gist of the method:
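Depletion of 1 μM compound followed by LC-MS/MS over 0–30 min (0, 3, 6, 9, 15, 30 min) after methanol quench. Incubations at 37 °C, pH 7.4 phosphate buffer, 0.5 mg/mL microsomal protein, with NADPH (1 mM) or a regenerating system as cofactor; controls lacked cofactor.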

The nature of series [5]: Lyophilisation solubility assay (Lysa). It is filed as physicochemical. Particulars: phosphate buffer, pH 6.5, aqueous buffer, thermodynamic from solid. The gist of the method: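 Solubility in μg/mL is read by UV or HPLC-UV on filtrate, neat and diluted 1/10. Before filtration, the residue from evaporated 10 mM DMSO stock was taken up in pH 6.5 0.05 M phosphate buffer, then stirred 1 h, shaken 2 h and stood overnight, in duplicate.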

In brackets after ≈: the same amount, converted by molar mass. Some results are limits rather than exact numbers.

One may read the EC50 as the concentration giving half of the maximal effect. A word on the CC50: it is the concentration at which the toxic effect on the cells reaches its halfway point. By solubility (thermodynamic) is commonly meant solubility found after equilibrating the solid with the medium. On to `CC(C)OC(=O)C1=C(CN2CCOC[C@H]2C(=O)O)NC(c2nccs2)=N[C@H]1c1cccc(F)c1Cl` [Example 101, (S)-4-[(R)-6-(2-Chloro-3-fluoro-phenyl)-5-isopropoxycarbonyl-2-thiazol-2-yl-3,6-dihydro-pyrimidin-4-ylmethyl]-morpholine-3-carboxylic acid], for which the EC50 in series [1] amounted to 14 nM. The CC50 at 5 days in series [2] was 91000 nM. For the same compound, the “Selectivity index (CC50/EC50)” value in series [3] came to 6741. Moreover, the “Human Hepatic Clearance” value in series [4] was found to be 4.18 mL/min/kg. In addition, the solubility (thermodynamic) in series [5] was greater than 571 µg/mL.

On to `COC(=O)C1=C(CN2CC(F)(F)C[C@H]2C(=O)O)NC(c2ncoc2C)=N[C@H]1c1ccc(F)cc1Cl` [Example 102, (R)-6-((5)-2-Carboxy-4,4-difluoro-pyrrolidin-1-ylmethyl)-4-(2-chloro-4-fluoro-phenyl)-2-(5-methyl-oxazol-4-yl)-1,4-dihydro-pyrimidine-5-carboxylic acid methyl ester], for which the EC50 in series [1] is 9 nM. The CC50 at 5 days in series [2] was 23000 nM. The “Selectivity index (CC50/EC50)” value in series [3] worked out at 2599. In addition, the “Human Hepatic Clearance” value in series [4] was found to be 0.97 mL/min/kg. In addition, the thermodynamic solubility in series [5] is greater than 635 µg/mL.

For the compound `COC(=O)C1=C(CN2CCOC[C@H]2C(=O)O)NC(c2ncoc2C)=N[C@H]1c1cccc(F)c1Cl` [Example 103, (S)-4-[(R)-6-(2-Chloro-3-fluoro-phenyl)-5-methoxycarbonyl-2-(5-methyl-oxazol-4-yl)-3,6-dihydro-pyrimidin-4-ylmethyl]-morpholine-3-carboxylic acid], the EC50 in series [1] is 15 nM. Moreover, in series [2], the CC50 at 5 days is greater than 100000 nM. Further, the “Selectivity index (CC50/EC50)” value in series [3] is greater than 6803. Besides, the “Human Hepatic Clearance” value in series [4] is recorded as 2.81 mL/min/kg. Besides, the solubility (thermodynamic) in series [5] is greater than 643 µg/mL.

For `COC(=O)C1=C(CN2CCO[C@H](C)[C@H]2C(=O)O)NC(c2nccs2)=N[C@H]1c1ccc(F)cc1Br` [Example 106, (2R,3S)-4-[(R)-6-(2-Bromo-4-fluoro-phenyl)-5-methoxycarbonyl-2-thiazol-2-yl-3,6-dihydro-pyrimidin-4-ylmethyl]-2-methyl-morpholine-3-carboxylic acid], in series [1], the EC50 stood at 2.1 nM. In series [2], the CC50 at 5 days was greater than 100000 nM. Moreover, the “Selectivity index (CC50/EC50)” value in series [3] is greater than 47619. In addition, the “Human Hepatic Clearance” value in series [4] is 6.32 mL/min/kg. Moreover, the thermodynamic solubility in series [5] was greater than 730 µg/mL.

As for `CCOC(=O)C1=C(CN2CC(F)(F)CC[C@H]2C(=O)O)NC(c2nccs2)=N[C@H]1c1ccc(F)cc1Br` [Example 107, (R)-4-(2-Bromo-4-fluoro-phenyl)-6-((S)-2-carboxy-5,5-difluoro-piperidin-1-ylmethyl)-2-thiazol-2-yl-1,4-dihydro-pyrimidine-5-carboxylic acid ethyl ester], the 50% effective concentration (EC50) in series [1] is 1.5 nM. The CC50 at 5 days in series [2] worked out at 24000 nM. For the same compound, the “Selectivity index (CC50/EC50)” value in series [3] was determined as 16000. Besides, the “Human Hepatic Clearance” value in series [4] worked out at 1.89 mL/min/kg. In series [5], this compound registered a thermodynamic solubility of 510 µg/mL (≈ 868 µM).

With `CCOC(=O)C1=C(CN2CC(F)(F)CC[C@@H]2C(=O)O)NC(c2nccs2)=N[C@H]1c1ccc(F)cc1Br` [Example 108, (R)-4-(2-Bromo-4-fluoro-phenyl)-6-((R)-2-carboxy-5,5-difluoro-piperidin-1-ylmethyl)-2-thiazol-2-yl-1,4-dihydro-pyrimidine-5-carboxylic acid ethyl ester], the EC50 in series [1] stood at 18 nM. Moreover, the CC50 at 5 days in series [2] was found to be 33000 nM. Further, in series [3], the “Selectivity index (CC50/EC50)” value was determined as 1784. Besides, the “Human Hepatic Clearance” value in series [4] was determined as 4.88 mL/min/kg. The compound further showed a solubility (thermodynamic) in series [5] of 410 µg/mL (≈ 698 µM).

For `COC(=O)C1=C(CN2CC(F)(F)CC[C@H]2C(=O)O)NC(c2nccs2)=N[C@H]1c1cccc(F)c1Cl` [Example 109, (R)-6-((S)-2-Carboxy-5,5-difluoro-piperidin-1-ylmethyl)-4-(2-chloro-3-fluoro-phenyl)-2-thiazol-2-yl-1,4-dihydro-pyrimidine-5-carboxylic acid methyl ester], the EC50 in series [1] was found to be 4.4 nM. Moreover, the CC50 at 5 days in series [2] stood at 55000 nM. Also, the “Selectivity index (CC50/EC50)” value in series [3] came out at 12500. In addition, the “Human Hepatic Clearance” value in series [4] was found to be 1.25 mL/min/kg. The thermodynamic solubility in series [5] was greater than 657 µg/mL.

Take `CCOC(=O)C1=C(CN2CC(F)(F)CC[C@H]2C(=O)O)NC(c2nccs2)=N[C@H]1c1ccccc1Cl` [Example 111, (R)-6-((S)-2-Carboxy-5,5-difluoro-piperidin-1-ylmethyl)-4-(2-chloro-phenyl)-2-thiazol-2-yl-1,4-dihydro-pyrimidine-5-carboxylic acid ethyl ester]: the EC50 in series [1] is 5.8 nM. Moreover, the CC50 at 5 days in series [2] is greater than 100000 nM. Further, the “Selectivity index (CC50/EC50)” value in series [3] is 17241. In addition, the “Human Hepatic Clearance” value in series [4] turned out to be 5.31 mL/min/kg. The same compound gave a solubility (thermodynamic) in series [5] greater than 620 µg/mL.

For `COC(=O)C1=C(CN2CCO[C@H](C)[C@H]2C(=O)O)NC(c2nccs2)=N[C@H]1c1ccc(F)c(F)c1` [Example 113, (2R,3S)-4-[(S)-6-(3,4-Difluoro-phenyl)-5-methoxycarbonyl-2-thiazol-2-yl-3,6-dihydro-pyrimidin-4-ylmethyl]-2-methyl-morpholine-3-carboxylic acid], in series [1], the EC50 was 16 nM. Besides, the CC50 at 5 days in series [2] is greater than 100000 nM. Moreover, the “Selectivity index (CC50/EC50)” value in series [3] is greater than 6061. The “Human Hepatic Clearance” value in series [4] amounted to 0 mL/min/kg. Besides, the thermodynamic solubility in series [5] is greater than 615 µg/mL.

In the case of `COC(=O)C1=C(CN2CCO[C@H](C)[C@H]2C(=O)O)NC(c2nccs2)=N[C@H]1c1ccc(F)c(F)c1F` [Example 114, (2R,3S)-4-[(R)-5-Methoxycarbonyl-2-thiazol-2-yl-6-(2,3,4-trifluoro-phenyl)-3,6-dihydro-pyrimidin-4-ylmethyl]-2-methyl-morpholine-3-carboxylic acid], the EC50 in series [1] came out at 9.3 nM. Further, the CC50 at 5 days in series [2] was greater than 100000 nM. Besides, the “Selectivity index (CC50/EC50)” value in series [3] was greater than 10753. In addition, the “Human Hepatic Clearance” value in series [4] was determined as 0 mL/min/kg. The compound also displayed a thermodynamic solubility in series [5] greater than 617 µg/mL.

As for `COC(=O)C1=C(CN2CCO[C@H](C)[C@H]2C(=O)O)NC(c2nccs2)=N[C@H]1c1cccc(F)c1Cl` [Example 115, (2R,3S)-4-[(R)-6-(2-Chloro-3-fluoro-phenyl)-5-methoxycarbonyl-2-thiazol-2-yl-3,6-dihydro-pyrimidin-4-ylmethyl]-2-methyl-morpholine-3-carboxylic acid], in series [1], the EC50 came to 2.3 nM. The CC50 at 5 days in series [2] was greater than 100000 nM. For the same compound, the “Selectivity index (CC50/EC50)” value in series [3] is listed as greater than 43478. Besides, in series [4], the “Human Hepatic Clearance” value stood at 1.55 mL/min/kg. This compound also gave a thermodynamic solubility in series [5] greater than 642 µg/mL.

On to `CCOC(=O)C1=C(CN2CCO[C@H](C)[C@H]2C(=O)O)NC(c2nccs2)=N[C@H]1c1ccccc1Cl` [Example 117, (2R,3S)-4-[(R)-6-(2-Chloro-phenyl)-5-ethoxycarbonyl-2-thiazol-2-yl-3,6-dihydro-pyrimidin-4-ylmethyl]-2-methyl-morpholine-3-carboxylic acid], for which, in series [1], the EC50 is 1.5 nM. In series [2], the CC50 at 5 days is greater than 100000 nM. Moreover, in series [3], the “Selectivity index (CC50/EC50)” value is recorded as 66667. In series [4], the “Human Hepatic Clearance” value was determined as 0 mL/min/kg. In series [5], this compound yielded a solubility (thermodynamic) greater than 628 µg/mL.

In the case of `CCOC(=O)C1=C(CN2CCO[C@H](C)[C@H]2C(=O)O)NC(c2nccs2)=N[C@H]1c1cccc(F)c1Cl` [Example 118, (2R,3S)-4-[(R)-6-(2-Chloro-3-fluoro-phenyl)-5-ethoxycarbonyl-2-thiazol-2-yl-3,6-dihydro-pyrimidin-4-ylmethyl]-2-methyl-morpholine-3-carboxylic acid], in series [1], the EC50 was determined as 0.5 nM. In series [2], the CC50 at 5 days was greater than 100000 nM. Besides, the “Selectivity index (CC50/EC50)” value in series [3] was greater than 200000. Further, the “Human Hepatic Clearance” value in series [4] was determined as 0.1 mL/min/kg. For the same compound, in series [5], the solubility (thermodynamic) was greater than 630 µg/mL.

For `CCOC(=O)C1=C(CN2CCOC[C@H]2C(=O)O)NC(c2nccs2)=N[C@H]1c1ccc(F)cc1Br` [Example 122, (S)-4-(((R)-6-(2-Bromo-4-fluorophenyl)-5-(ethoxycarbonyl)-2-(thiazol-2-yl)-3,6-dihydropyrimidin-4-yl)methyl)morpholine-3-carboxylic acid], the concentration for a half-maximal effect (EC50) in series [1] was 1.3 nM. In addition, the CC50 at 5 days in series [2] came out at 73000 nM. Moreover, the “Selectivity index (CC50/EC50)” value in series [3] is on record as 55769. In series [4], the “Human Hepatic Clearance” value was 1.58 mL/min/kg. The compound also gave a thermodynamic solubility in series [5] greater than 722 µg/mL.

With `CCOC(=O)C1=C(CN2CCOC[C@H]2C(=O)O)NC(c2nccs2)=N[C@H]1c1ccc(Br)cc1` [Example 123, (3S)-4-[[(4S)-4-(4-Bromophenyl)-5-ethoxycarbonyl-2-(1,3-thiazol-2-yl)-1,4-dihydropyrimidin-6-yl]methyl]morpholine-3-carboxylic acid], the EC50 in series [1] came to 2.8 nM. The CC50 at 5 days in series [2] worked out at 56000 nM. In series [3], the “Selectivity index (CC50/EC50)” value is reported as 19900. The “Human Hepatic Clearance” value in series [4] came out at 3.14 mL/min/kg. This compound also came in with a solubility (thermodynamic) in series [5] greater than 666 µg/mL.
